The subject of one experiment is CSPα. As to the kind of experiment: CSPα oligomerization and palmitoylation in ANCL patient-derived induced neurons (quantitative immunoblotting). Type of experiment: cell-based, human. The settings on record: ANCL iNs; 72 h; compared to vehicle alone; FIG. 7B. Here is the method: ANCL patient-derived fibroblasts were treated with 200 μM of L1 or Dfx, or vehicle (0.1% DMSO=Control) for 72 h, before measuring the UV-Vis absorbance spectra of immunoprecipitated CSPα eluted by trypsinization (solid lines). Spectra were re-read after 10 min of 0.1 N HCl treatment (dashed lines). The experiments shown in FIGS. 7B-7I, were conducted using ANCL fibroblasts converted to iNs using BAM+ND1 technique. […] Quantitative immunoblotting was used to measure levels of oligomerized and fully palmitoylated CSPα as well as total SNAP-25. Oligo=oligomers; Palm=palmitoylated. […] The interaction of CSPα with SNAP-25 in ANCL iNs was measured by immunoprecipitating SNAP-25 followed by quantitative immunoblotting of co-immunoprecipitated CSPα (normalized to SNAP-25 IP). Note that mainly CSPα monomers and not oligomers were detected bound to SNAP-25. Control=control sham IP without IgG. […] Turnover of SNAP-25 was determined by cycloheximide chase, while maintaining the iron-chelators or vehicle in the medium. […] In the experiments shown in FIGS. 7E-7G, ANCL iNs treated with L1, Dfx, or vehicle for 56 d and analyzed. […] The levels of lipofuscin were determined by ELISA. In the experiments shown in FIGS. 7H-7I 56 day old untreated ANCL iNs were treated with L1, Dfx, or vehicle, and analyzed. […] Data are from FIG. 7A representative of n=4, FIG. 7B n=4, FIG. 7C n=4, FIG. 7D n=7, FIG. 7F n=4, FIG. 7G n=4, FIG. 7H n=6, FIG. 7I n=3. In FIGS. 7B-7C and FIGS. 7F-7G *P<0.05; **P<0.01; ****P<0.0001 by two-tailed Student's t-test. #P<0.05 by Mann-Whitney-Wilcoxon U test. In FIG. 7D-7C and FIGS. 7H-7I **P<0.01; ***P<0.001; ****P<0.0001 by two-way ANOVA; ##P<0.01; ###P<0.001; ####P<0.0001 by Tukey's multiple comparisons test.
For pharmacological iron-chelation, deferiprone (L1; 200 μM; Biotang), deferoxamine mesylate (Dfx; 200 μM; Calbiochem), or 0.1% DMSO as vehicle control were added to the respective culture media of primary cortical neurons, fibroblasts, or iNs. When these media were changed, the fresh media contained identical concentration of the respective iron-chelator or vehicle.
Fibroblasts from an affected person carrying the L116Δ mutation were obtained, and an age-and-sex matched unaffected fibroblast line was frozen, thawed and cultured in parallel to maintain similar passage numbers. Fibroblasts were maintained in DMEM supplemented with 10% fetal bovine serum supplemented with L-glutamine, penicillin, and streptomycin. […]
For SDS-PAGE, 10-15% Laemmli gels (10.3% T and 3.3% C) were used to separate proteins on Bio-Rad apparati. […] Immunoblots were washed 5× with TBS-T and dried, then scanned on Odyssey CLx (LI-COR) and quantified using Image-Studio software (LI-COR). […]
(In general: In western blotting, separated proteins are transferred to a membrane and probed.)

In experiment [1] the test system is CSPα^L115R and CSPα^L116Δ. Description: CSPα oligomerization and palmitoylation in CSPα−/− primary cortical neurons expressing ANCL mutants (SDS-PAGE, quantitative immunoblotting). In kind it is cell-based, mice. The settings on record: 200 μM, 72 h, FIG. 3D; for oligomerization of CSPα^L115R and CSPα^L116Δ: vs vehicle (0.1% DMSO); for palmitoylation of CSPα^L115R and CSPα^L116Δ: vs vehicle.

A further experiment has as its system CSPα with SNAP-25. Description: Interaction of CSPα with SNAP-25 in ANCL iNs (SNAP-25 IP, co-IP of CSPα). Type of experiment: cell-based, human. The settings on record: 72 h, compared to control, FIG. 7C. On the procedure: ANCL patient-derived fibroblasts were treated with 200 μM of L1 or Dfx, or vehicle (0.1% DMSO=Control) for 72 h, before measuring the UV-Vis absorbance spectra of immunoprecipitated CSPα eluted by trypsinization (solid lines). Spectra were re-read after 10 min of 0.1 N HCl treatment (dashed lines). The experiments shown in FIGS. 7B-7I, were conducted using ANCL fibroblasts converted to iNs using BAM+ND1 technique. […] Quantitative immunoblotting was used to measure levels of oligomerized and fully palmitoylated CSPα as well as total SNAP-25. Oligo=oligomers; Palm=palmitoylated. […] The interaction of CSPα with SNAP-25 in ANCL iNs was measured by immunoprecipitating SNAP-25 followed by quantitative immunoblotting of co-immunoprecipitated CSPα (normalized to SNAP-25 IP). Note that mainly CSPα monomers and not oligomers were detected bound to SNAP-25. Control=control sham IP without IgG. […] Turnover of SNAP-25 was determined by cycloheximide chase, while maintaining the iron-chelators or vehicle in the medium. […] In the experiments shown in FIGS. 7E-7G, ANCL iNs treated with L1, Dfx, or vehicle for 56 d and analyzed. […] The levels of lipofuscin were determined by ELISA. In the experiments shown in FIGS. 7H-7I 56 day old untreated ANCL iNs were treated with L1, Dfx, or vehicle, and analyzed. […]

The structures appear in SMILES notation.

On to `CC(=O)N(O)CCCCCNC(=O)CCC(=O)N(O)CCCCCNC(=O)CCC(=O)N(O)CCCCCN` [Dfx, N′-[5-(Acetyl-hydroxy-amino)pentyl]-N-[5-[3-(5-aminopentyl-hydroxy-carbamoyl)propanoylamino]pentyl]-N-hydroxy-butane diamide], for which, in the experiment on CSPα, the “oligomerization of CSPα” value is recorded as “reduced the oligomerization” and the “palmitoylation of CSPα” value was “improved palmitoylation”. Also, in experiment [1], the “oligomerization of CSPα^L115R and CSPα^L116Δ” value was “reduced the oligomerization”; the “palmitoylation of CSPα^L115R and CSPα^L116Δ” value is “improved”. Further, the “interaction of CSPα with SNAP-25” value with CSPα with SNAP-25 is “improved”.

On to `Cc1c(O)c(=O)ccn1C` [L1, 3-hydroxy-1,2-dimethyl-4(1H)-pyridone], for which, in the experiment with CSPα, the “oligomerization of CSPα” value is “reduced the oligomerization” and the “palmitoylation of CSPα” value is recorded as “improved palmitoylation”. Moreover, in experiment [1], the “oligomerization of CSPα^L115R and CSPα^L116Δ” value is given as “reduced the oligomerization”; the “palmitoylation of CSPα^L115R and CSPα^L116Δ” value was “improved”. In the experiment on CSPα with SNAP-25, the “interaction of CSPα with SNAP-25” value is listed as “improved”.

For the origin of these results see patent publication US12083105B2, “Compositions and methods for treating adult-onset neuronal ceroid lipofuscinosis (Kufs disease)” (CORNELL UNIVERSITY, priority 2020, dated 2024).
